Where two headings read alike, the source gives them in different places.
Columns and labels:
Type in all cases: binding
[1] = molecular target: T1, HeLa cell extract proteins (Homo sapiens, UniProt Q9UNK9)
T1 construct: endogenous in cells; host or cells: HeLa cell extract
T1 sequence (Q9UNK9 1-670): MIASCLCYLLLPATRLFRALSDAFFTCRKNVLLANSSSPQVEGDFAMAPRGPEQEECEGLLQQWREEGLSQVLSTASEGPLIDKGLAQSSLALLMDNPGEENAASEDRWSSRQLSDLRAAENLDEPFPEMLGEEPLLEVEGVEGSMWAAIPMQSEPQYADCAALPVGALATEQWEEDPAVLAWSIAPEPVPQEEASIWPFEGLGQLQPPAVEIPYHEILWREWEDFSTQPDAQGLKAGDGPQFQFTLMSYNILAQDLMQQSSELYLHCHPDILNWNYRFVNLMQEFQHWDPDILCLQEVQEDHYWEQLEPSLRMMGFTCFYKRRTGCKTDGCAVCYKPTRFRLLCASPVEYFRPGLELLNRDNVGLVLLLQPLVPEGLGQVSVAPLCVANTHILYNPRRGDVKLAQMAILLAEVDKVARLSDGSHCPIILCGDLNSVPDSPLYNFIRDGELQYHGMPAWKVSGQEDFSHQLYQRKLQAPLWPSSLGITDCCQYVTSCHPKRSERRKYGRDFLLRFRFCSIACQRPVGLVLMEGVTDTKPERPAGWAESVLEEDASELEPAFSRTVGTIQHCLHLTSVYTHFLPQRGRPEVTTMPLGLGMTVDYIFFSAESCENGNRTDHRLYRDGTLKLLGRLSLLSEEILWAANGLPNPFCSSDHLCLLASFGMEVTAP

[2] = molecular target: T2, HeLa cell extract proteins (Homo sapiens, UniProt P14618)
T2 construct: endogenous in cells; host or cells: HeLa cell extract

[3] = molecular target: T3, HeLa cell extract proteins (Homo sapiens, UniProt Q9NQX3)
T3 construct: endogenous in cells; host or cells: HeLa cell extract
T3 sequence (Q9NQX3 1-736): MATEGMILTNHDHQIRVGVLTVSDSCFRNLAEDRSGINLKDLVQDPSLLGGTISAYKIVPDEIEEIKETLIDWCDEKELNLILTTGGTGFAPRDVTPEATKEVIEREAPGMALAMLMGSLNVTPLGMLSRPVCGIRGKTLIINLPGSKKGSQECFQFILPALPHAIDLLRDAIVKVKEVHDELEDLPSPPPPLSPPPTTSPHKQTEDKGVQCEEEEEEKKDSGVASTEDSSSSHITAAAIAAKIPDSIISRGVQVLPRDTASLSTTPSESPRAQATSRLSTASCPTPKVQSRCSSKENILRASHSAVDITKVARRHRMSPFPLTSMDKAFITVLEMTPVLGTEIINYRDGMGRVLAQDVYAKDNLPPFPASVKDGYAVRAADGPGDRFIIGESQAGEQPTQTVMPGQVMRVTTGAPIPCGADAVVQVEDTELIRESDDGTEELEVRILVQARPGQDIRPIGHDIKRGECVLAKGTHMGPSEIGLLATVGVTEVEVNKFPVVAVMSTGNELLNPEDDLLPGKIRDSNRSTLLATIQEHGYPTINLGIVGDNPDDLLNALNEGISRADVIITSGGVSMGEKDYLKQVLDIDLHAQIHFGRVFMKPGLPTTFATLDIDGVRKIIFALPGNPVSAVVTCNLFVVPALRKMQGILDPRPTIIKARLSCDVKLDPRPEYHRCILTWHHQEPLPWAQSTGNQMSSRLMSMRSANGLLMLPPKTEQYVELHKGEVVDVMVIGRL

[4] = molecular target: T4, HeLa cell extract proteins (Homo sapiens, UniProt O43148)
T4 construct: endogenous in cells; host or cells: HeLa cell extract

[5] = molecular target: T5, HeLa cell extract proteins (Homo sapiens, UniProt Q9HBL8)
T5 construct: endogenous in cells; host or cells: HeLa cell extract

[6] = molecular target: T6, HeLa cell extract proteins (Homo sapiens, UniProt P11177)
T6 construct: endogenous in cells; host or cells: HeLa cell extract
T6 sequence (P11177 31-359): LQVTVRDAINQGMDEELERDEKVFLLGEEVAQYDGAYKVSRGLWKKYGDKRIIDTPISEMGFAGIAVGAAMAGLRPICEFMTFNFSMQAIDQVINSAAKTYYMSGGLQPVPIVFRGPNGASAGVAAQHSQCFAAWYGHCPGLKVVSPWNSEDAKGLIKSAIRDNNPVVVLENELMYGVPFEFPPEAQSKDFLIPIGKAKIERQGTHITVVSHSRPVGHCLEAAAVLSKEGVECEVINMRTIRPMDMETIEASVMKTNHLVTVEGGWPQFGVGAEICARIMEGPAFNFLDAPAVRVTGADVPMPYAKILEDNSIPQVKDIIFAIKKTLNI

[7] = molecular target: T7, HeLa cell extract proteins (Homo sapiens, UniProt Q15907)
T7 construct: endogenous in cells; host or cells: HeLa cell extract
T7 sequence (Q15907 1-218): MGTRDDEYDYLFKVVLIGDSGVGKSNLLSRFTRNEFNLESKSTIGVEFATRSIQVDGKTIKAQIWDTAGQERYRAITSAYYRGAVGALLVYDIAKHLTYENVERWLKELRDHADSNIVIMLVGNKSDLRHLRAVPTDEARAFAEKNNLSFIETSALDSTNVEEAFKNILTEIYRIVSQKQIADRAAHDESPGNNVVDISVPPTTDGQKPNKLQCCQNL

[8] = molecular target: T8, HeLa cell extract proteins (Homo sapiens, UniProt Q96DE0)
T8 construct: endogenous in cells; host or cells: HeLa cell extract

[9] = molecular target: T9, HeLa cell extract proteins (Homo sapiens, UniProt O60547)
T9 construct: endogenous in cells; host or cells: HeLa cell extract
T9 sequence (O60547 1-372): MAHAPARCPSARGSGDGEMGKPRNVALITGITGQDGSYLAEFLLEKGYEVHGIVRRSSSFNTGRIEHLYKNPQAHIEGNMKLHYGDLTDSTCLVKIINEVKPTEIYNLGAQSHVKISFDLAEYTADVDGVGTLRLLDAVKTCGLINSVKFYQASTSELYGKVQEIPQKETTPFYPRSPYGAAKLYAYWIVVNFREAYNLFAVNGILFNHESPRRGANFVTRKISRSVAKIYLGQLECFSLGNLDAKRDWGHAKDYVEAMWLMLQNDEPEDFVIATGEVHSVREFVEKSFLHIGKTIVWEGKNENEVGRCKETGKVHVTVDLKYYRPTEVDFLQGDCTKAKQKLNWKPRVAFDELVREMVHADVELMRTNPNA

[10] = HeLa, protein PKM2 (CDNA FLJ56065, HIGHLY SIMILAR TO PYRUVATE KINASE ISOZYME M1.)
[11] = HeLa, protein PDHB (ISOFORM 1 OF PYRUVATE DEHYDROGENASE E1 COMPONENT SUBUNIT BETA, MITOCHONDRIAL PRECURSOR)

T2 sequence (P14618 whole entry): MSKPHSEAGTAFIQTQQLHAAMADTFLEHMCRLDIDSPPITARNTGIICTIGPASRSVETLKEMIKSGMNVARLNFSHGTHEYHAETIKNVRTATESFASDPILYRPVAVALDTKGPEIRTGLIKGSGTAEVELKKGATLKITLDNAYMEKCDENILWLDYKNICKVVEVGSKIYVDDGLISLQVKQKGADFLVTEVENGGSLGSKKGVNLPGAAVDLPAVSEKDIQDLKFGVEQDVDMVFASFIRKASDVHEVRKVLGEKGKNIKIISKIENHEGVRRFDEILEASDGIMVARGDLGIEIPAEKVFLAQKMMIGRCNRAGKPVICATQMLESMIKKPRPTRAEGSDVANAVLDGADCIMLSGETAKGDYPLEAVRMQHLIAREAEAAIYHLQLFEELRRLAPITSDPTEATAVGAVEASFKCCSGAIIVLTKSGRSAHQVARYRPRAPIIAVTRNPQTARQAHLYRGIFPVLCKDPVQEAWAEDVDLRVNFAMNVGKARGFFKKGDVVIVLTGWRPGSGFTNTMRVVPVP
T8 sequence (Q96DE0 whole entry): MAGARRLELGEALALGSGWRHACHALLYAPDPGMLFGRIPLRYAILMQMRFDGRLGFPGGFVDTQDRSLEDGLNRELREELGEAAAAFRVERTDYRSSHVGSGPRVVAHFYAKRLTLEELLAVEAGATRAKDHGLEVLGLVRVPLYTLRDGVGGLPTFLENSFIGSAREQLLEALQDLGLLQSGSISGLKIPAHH
T4 sequence (O43148 whole entry): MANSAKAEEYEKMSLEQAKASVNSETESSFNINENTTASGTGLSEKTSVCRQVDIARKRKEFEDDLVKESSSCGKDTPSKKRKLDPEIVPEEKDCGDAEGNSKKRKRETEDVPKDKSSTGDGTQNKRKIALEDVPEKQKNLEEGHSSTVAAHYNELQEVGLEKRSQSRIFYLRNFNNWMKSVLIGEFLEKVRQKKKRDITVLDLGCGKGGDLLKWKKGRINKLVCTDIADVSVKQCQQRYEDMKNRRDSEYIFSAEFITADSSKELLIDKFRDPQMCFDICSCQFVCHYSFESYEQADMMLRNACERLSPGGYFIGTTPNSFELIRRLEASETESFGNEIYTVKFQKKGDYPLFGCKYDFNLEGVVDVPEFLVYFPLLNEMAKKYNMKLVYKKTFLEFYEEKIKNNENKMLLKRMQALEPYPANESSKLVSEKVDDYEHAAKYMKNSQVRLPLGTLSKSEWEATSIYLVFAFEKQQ
T5 sequence (Q9HBL8 whole entry): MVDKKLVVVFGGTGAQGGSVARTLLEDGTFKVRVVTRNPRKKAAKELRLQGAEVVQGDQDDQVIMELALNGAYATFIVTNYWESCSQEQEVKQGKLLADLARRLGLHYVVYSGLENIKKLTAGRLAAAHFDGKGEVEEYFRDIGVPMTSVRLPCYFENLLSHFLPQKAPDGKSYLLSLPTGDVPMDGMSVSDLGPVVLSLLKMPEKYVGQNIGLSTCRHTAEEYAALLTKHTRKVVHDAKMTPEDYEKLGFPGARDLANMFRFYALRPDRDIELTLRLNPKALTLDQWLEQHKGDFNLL

| SMILES | fold changes relative to vehicle control ([1]; protein ANGEL1, HeLa) | fold changes relative to vehicle control ([2]; HeLa, protein PKM2) | fold changes relative to vehicle control ([3]; HeLa, captured protein GPHN) | fold changes relative to vehicle control ([4]; HeLa, captured protein RNMT) | fold changes relative to vehicle control ([5]; protein NMRAL1, HeLa) | fold changes relative to vehicle control ([7]; HeLa, protein RAB11B) | fold changes relative to vehicle control ([8]; HeLa, captured protein NUDT16) | fold changes relative to vehicle control ([9]; HeLa, captured protein GMDS) | fold changes relative to vehicle control ([1]; captured protein ANGEL1, HeLa) | fold changes relative to vehicle control [2, 10] [fold] | fold changes relative to vehicle control ([3]; protein GPHN, HeLa) | fold changes relative to vehicle control ([4]; HeLa, protein RNMT) | fold changes relative to vehicle control ([5]; captured protein NMRAL1, HeLa) | fold changes relative to vehicle control ([6]; protein PDHB, HeLa) | fold changes relative to vehicle control ([7]; protein RAB11B, HeLa) | fold changes relative to vehicle control ([8]; captured protein NUDT16, HeLa) | fold changes relative to vehicle control ([9]; HeLa, protein GMDS) | further results |
| --- | --- | --- | --- | --- | --- | --- | --- | --- | --- | --- | --- | --- | --- | --- | --- | --- | --- | --- |
| Nc1nc2c(c(=O)[nH]1)N(C=O)C(CNc1ccc(C(=O)N[C@@H](CCC(=O)O)C(=O)O)cc1)CN2 (stereo partly drawn) [LEU, leucovorin] | 0.84 | 1.03 | 0.81 | 0.88 | 1.01 | 0.87 | 0.93 | 1 |  |  |  |  |  |  |  |  |  | fold changes relative to vehicle control ([6]; HeLa, protein PDHB (ISOFORM 1 OF PYRUVATE DEHYDROGENASE E1 COMPONENT SUBUNIT BETA, MIT[…])): 1.01 |
| Nc1nc2[nH]cc(CCc3ccc(C(=O)N[C@@H](CCC(=O)O)C(=O)O)cc3)c2c(=O)[nH]1 [PTX, pemetrexed] |  |  |  |  |  |  |  |  |  |  |  |  |  |  |  |  |  | fold changes relative to vehicle control [1]: 0.94; fold changes relative to vehicle control [2]: 1.09; fold changes relative to vehicle control [3]: 0.83; fold changes relative to vehicle control [4]: 0.83; fold changes relative to vehicle control [5]: 0.89; fold changes relative to vehicle control [6]: 0.92; fold changes relative to vehicle control [7]: 0.94; fold changes relative to vehicle control [8]: 0.92; fold changes relative to vehicle control [9]: 1 |
| CCCCCCOc1ccc(Cc2cnc(N)nc2N)cc1 [compound 1] |  |  |  |  |  |  |  |  | 1.04 | 1.45 | 0.94 | 0.92 | 0.54 | 0.97 | 1.02 | 0.62 | 1.06 |  |
| CCCCCCOc1cccc(Cc2cnc(N)nc2N)c1 [compound 2] |  |  |  |  |  |  |  |  | 0.94 | 2.57 | 0.93 | 0.97 | 1.05 | 0.38 | 1.44 | 0.93 | 1.21 |  |
| Nc1nc2cccc(-c3ccccc3)c2n1Cc1ccc(Cl)c(Cl)c1 [compound 3] |  |  |  |  |  |  |  |  | 0.95 | 0.99 | 0.96 | 0.93 | 0.95 | 0.99 | 0.97 | 1.02 | 1.25 |  |
| NCCOCCOCC(=O)Nc1nc2ncc(CNc3ccc(C(=O)NC(CCC(=O)O)C(=O)O)cc3)nc2c(=O)[nH]1 (stereo not drawn) [compound 6] | 1.02 | 1.29 | 0.99 | 0.79 | 0.62 | 1.14 | 0.84 | 0.98 |  |  |  |  |  |  |  |  |  | fold changes relative to vehicle control [6, 11]: 0.87 |
| NCCCNc1ccc(C(=O)NC(CCC(=O)O)C(=O)O)cc1 (stereo not drawn) [compound 7] | 1 | 0.94 | 1.03 | 1.02 | 1.03 | 0.84 | 1.02 | 1.12 |  |  |  |  |  |  |  |  |  | fold changes relative to vehicle control [6, 11]: 0.92 |
